From patent US9169290B2, “Peptides and their use” (priority 2007, dated 2015)
Values after ≈ are worked out from the molar mass of the structure shown. Like-named read-outs stand apart in the source and are kept apart here. Ends that are not written are not given here. Peptide text beside a SMILES is read from it.

Assays:
C. albicans = format: cell-based, Candida albicans
Method: (§1) Broth Dilution Antifungal Susceptibility Testing
(§2) The sensitivity of relevant fungal strains to the peptides was determined using Clinical Laboratory Standard Institute (CLSI; formerly NCCLS) Approved Standards.

Trichophyton rubrum = format: cell-based
Method: as §1, §2

C. parapsilosis = format: cell-based, Candida parapsilosis
Method: as §1
The sensitivity of relevant fungal strains to the peptides was determined using Clinical Laboratory Standard Institute (CLSI; formerly NCCLS) Approved Standards. Fungal susceptibility was tested using “Reference Method for Broth Dilution Antifungal Susceptibility Testing of Filamentous Fungi; […];

C. krusei = format: cell-based, Candida krusei
Method: as §1, §2

Malasezzia furfur = format: cell-based
Method: as §1, §2

C. tropicalis = test: Broth dilution antifungal susceptibility testing of yeasts (CLSI M27-A), MIC; format: cell-based, Candida tropicalis; conditions: C. tropicalis strain ATCC750
Method: as §1
The sensitivity of relevant fungal strains to the peptides was determined using Clinical Laboratory Standard Institute (CLSI; formerly NCCLS) Approved Standards. Fungal susceptibility was tested using “Reference Method for Broth Dilution Antifungal Susceptibility Testing of Filamentous Fungi; Approved Standard M38-P”, and yeast susceptibility was tested using “Reference Method for Broth Dilution Antifungal Susceptibility Testing of Yeasts; Approved Standard—Second Edition M27-A”.

[1] = C. parapsilosis strain ATCC22019
[2] = Malasezzia furfur strain DSM6170

## CC(C)[C@H](NC(=O)[C@H](CCCNC(=N)N)NC(=O)[C@H](CCCNC(=N)N)NC(=O)[C@H](CCCNC(=N)N)NC(=O)[C@@H](N)CCCNC(=N)N)C(=O)N[C@H](C(=O)N[C@@H](CCCNC(=N)N)C(=O)N[C@@H](CCCNC(=N)N)C(=O)N[C@@H](CCCNC(=N)N)C(=O)N[C@@H](CCCNC(=N)N)C(=O)O)C(C)C [NP310]
C. albicans
  MIC, Candida albicans NCTC3179: >2000 µM
Trichophyton rubrum
  MIC: >2 µM

## N=C(N)NCCC[C@H](NC(=O)[C@H](CCCNC(=N)N)NC(=O)[C@H](CCCNC(=N)N)NC(=O)[C@H](CCCNC(=N)N)NC(=O)[C@H](CCCNC(=N)N)NC(=O)[C@H](CCCNC(=N)N)NC(=O)[C@H](CCCNC(=N)N)NC(=O)[C@H](CCCNC(=N)N)NC(=O)[C@H](CCCNC(=N)N)NC(=O)[C@H](CCCNC(=N)N)NC(=O)[C@@H](N)CCCNC(=N)N)C(=O)O [NP317]
C. parapsilosis
  MIC: 256 µM (≈ 444 µg/mL)
C. albicans
  MIC, Candida albicans NCTC3179: 512 µM (≈ 889 µg/mL)
C. krusei
  MIC, Candida krusei NCPF3953: 32 µM (≈ 55.6 µg/mL)
Malasezzia furfur
  MIC: <15.6 µM
Trichophyton rubrum
  MIC: 0.25 µM (≈ 0.434 µg/mL)

## N=C(N)NCCC[C@H](NC(=O)[C@H](CCCNC(=N)N)NC(=O)[C@H](CCCNC(=N)N)NC(=O)[C@H](CCCNC(=N)N)NC(=O)[C@H](CCCNC(=N)N)NC(=O)[C@H](CCCNC(=N)N)NC(=O)[C@H](CCCNC(=N)N)NC(=O)[C@H](CCCNC(=N)N)NC(=O)[C@H](CCCNC(=N)N)NC(=O)[C@H](CCCNC(=N)N)NC(=O)[C@H](CCCNC(=N)N)NC(=O)[C@H](CCCNC(=N)N)NC(=O)[C@@H](N)CCCNC(=N)N)C(=O)O [NP318]
C. parapsilosis; [1]
  MIC: 256 µM (≈ 524 µg/mL)
C. albicans
  MIC, Candida albicans NCTC3179: 4 µM (≈ 8.19 µg/mL)
C. krusei; C. krusei strain ATCC6258
  MIC: <16 µM
C. krusei; C. krusei strain NCPF3953
  MIC: 8 µM (≈ 16.4 µg/mL)
C. krusei; Candida spp. Type Strains MIC Data table, strain NCPF3953
  MIC, Candida krusei NCPF3953: 8 µM (≈ 16.4 µg/mL)
Malasezzia furfur; [2]
  MIC: 62.5 µM (≈ 128 µg/mL)
Trichophyton rubrum; Trichophyton rubrum strain NCPF118
  MIC: >2 µM

## CC(=O)N[C@H](CCCNC(=N)N)C(=O)N[C@H](CCCNC(=N)N)C(=O)N[C@H](CCCNC(=N)N)C(=O)N[C@H](CCCNC(=N)N)C(=O)N[C@H](CCCNC(=N)N)C(=O)N[C@H](CCCNC(=N)N)C(=O)N[C@H](CCCNC(=N)N)C(=O)N[C@H](CCCNC(=N)N)C(=O)N[C@H](CCCNC(=N)N)C(=O)N[C@H](CCCNC(=N)N)C(=O)N[C@H](CCCNC(=N)N)C(=O)N[C@H](CCCNC(=N)N)C(=O)N[C@H](CCCNC(=N)N)C(N)=O [NP340, Ac-dRdRdRdRdRdRdRdRdRdRdRdRdR-NH2]
C. parapsilosis; [1]
  MIC: 2 µM (≈ 4.18 µg/mL)
C. parapsilosis; C. parapsilosis strain ATCC90018
  MIC: 2 µM (≈ 4.18 µg/mL)
C. tropicalis
  MIC: 2 µM (≈ 4.18 µg/mL)
C. albicans
  MIC, Candida albicans ATCC90028: 2 µM (≈ 4.18 µg/mL)
C. krusei; C. krusei strain ATCC6258
  MIC: 4 µM (≈ 8.36 µg/mL)

## N=C(N)NCCC[C@H](NC(=O)[C@H](CCCNC(=N)N)NC(=O)[C@H](CCCNC(=N)N)NC(=O)[C@H](CCCNC(=N)N)NC(=O)[C@H](CCCNC(=N)N)NC(=O)[C@H](CCCNC(=N)N)NC(=O)[C@H](CCCNC(=N)N)NC(=O)[C@H](CCCNC(=N)N)NC(=O)[C@H](CCCNC(=N)N)NC(=O)[C@H](CCCNC(=N)N)NC(=O)[C@@H](N)CCCNC(=N)N)C(=O)O [NP350]
C. albicans
  MIC: 64 µM (≈ 111 µg/mL)
C. krusei
  MIC: 8 µM (≈ 13.9 µg/mL)

## N=C(N)NCCC[C@H](NC(=O)[C@H](CCCNC(=N)N)NC(=O)[C@H](CCCNC(=N)N)NC(=O)[C@H](CCCNC(=N)N)NC(=O)[C@H](CCCNC(=N)N)NC(=O)[C@H](CCCNC(=N)N)NC(=O)[C@H](CCCNC(=N)N)NC(=O)[C@H](CCCNC(=N)N)NC(=O)[C@H](CCCNC(=N)N)NC(=O)[C@H](CCCNC(=N)N)NC(=O)[C@H](CCCNC(=N)N)NC(=O)[C@H](CCCNC(=N)N)NC(=O)[C@@H](N)CCCNC(=N)N)C(=O)O [NP351]
C. albicans
  MIC: 4 µM (≈ 8.19 µg/mL)
C. krusei; C. krusei strain NCPF3953
  MIC: 32 µM (≈ 65.6 µg/mL)

## N=C(N)NCCC[C@H](NC(=O)[C@H](CCCNC(=N)N)NC(=O)[C@@H](N)CCCNC(=N)N)C(=O)O [NP356, RRR] (H-Arg-Arg-Arg-OH; N-terminus and C-terminus assumed)
C. albicans
  MIC: >2048 µM

## N=C(N)NCCC[C@H](NC(=O)[C@H](CCCNC(=N)N)NC(=O)[C@H](CCCNC(=N)N)NC(=O)[C@H](CCCNC(=N)N)NC(=O)[C@H](CCCNC(=N)N)NC(=O)[C@H](CCCNC(=N)N)NC(=O)[C@@H](N)CCCNC(=N)N)C(=O)O [NP358, RRRRRRR]
C. albicans
  MIC: >2048 µM

## GKKEKPEKKVKK [NP331]
C. albicans
  MIC, Candida albicans NCTC3179: >2000 µM

## ILRWPWWPWRRK-NH2 [NP354]
C. krusei; C. krusei strain NCPF3953
  MIC: >2048 µM

## KKKDKVKK [NP334]
C. albicans
  MIC, Candida albicans NCTC3179: >2000 µM

## KKKKK [NP343, KKKKK]
C. albicans
  MIC: >2048 µM

## KKKKKEGKKQEKMLD [NP333]
C. albicans
  MIC, Candida albicans NCTC3179: >2000 µM

## KKKKKKK [NP344, KKKKKKK]
C. albicans
  MIC: >2048 µM

## KKKKKKKKK [NP345]
C. albicans
  MIC: >2048 µM

## KKKKKKKKKKK [NP346]
C. albicans
  MIC: >2048 µM

## KKKKKKKKKKKKK [NP347]
C. albicans; C. albicans strain NCTC3179
  MIC: >2048 µM

## KKKKKKKKKKKKKKK [NP348]
C. albicans; C. albicans strain NCTC3179
  MIC: >2048 µM

## KLTKPKPQAESKKKKK [NP332]
C. albicans
  MIC, Candida albicans NCTC3179: >2000 µM

## KVRQGTLKKAR [NP335]
C. albicans
  MIC, Candida albicans NCTC3179: >2000 µM

## PKTKAKAKAKKGKGKD [NP336]
C. albicans
  MIC, Candida albicans NCTC3179: >2000 µM

## Poly-L-Lysine (MW 0.5-2 kDa) [NP112]
Malasezzia furfur; [2]
  MIC: 512 (μg/ml)

## RRRRR [NP357, RRRRR]
C. albicans
  MIC: >2048 µM

## RRRRWWRRRR [NP329]
C. albicans
  MIC: 1024 µM
  MIC, Candida albicans ATCC24433: 512 µM
  MIC, Candida albicans NCTC3179: 256 µM
C. krusei
  MIC: 32 µM
  MIC, Candida krusei NCPF3953: 32 µM

## RRRVRRR [NP306, RRRVRRR]
C. albicans
  MIC, Candida albicans NCTC3179: >2000 µM
Trichophyton rubrum
  MIC: >2 µM

## RRRVVRRR [NP308]
C. albicans
  MIC, Candida albicans NCTC3179: >2000 µM
Trichophyton rubrum
  MIC: >2 µM

## RRRWRRR [NP325, RRRWRRR]
C. albicans
  MIC, Candida albicans NCTC3179: >2000 µM

## RRRWWRRR [NP327]
C. albicans
  MIC, Candida albicans ATCC24433: 1024 µM
  MIC, Candida albicans ATCC90028: 512 µM
  MIC, Candida albicans NCTC3179: 512 µM
C. krusei
  MIC, Candida krusei NCPF3953: 64 µM

## RRVRR [NP303, RRVRR]
C. albicans
  MIC, Candida albicans NCTC3179: >2000 µM
Trichophyton rubrum
  MIC: >2 µM

## RRVRRVRR [NP309]
C. albicans
  MIC, Candida albicans NCTC3179: >2000 µM
Trichophyton rubrum
  MIC: >2 µM

## RRVRVR [NP304, RRVRVR]
C. albicans
  MIC, Candida albicans NCTC3179: >2000 µM
Trichophyton rubrum
  MIC: >2 µM

## RRVRVRR [NP307, RRVRVRR]
C. albicans
  MIC, Candida albicans NCTC3179: >2000 µM
Trichophyton rubrum
  MIC: >2 µM

## RRVVR [NP302, RRVVR]
C. albicans
  MIC, Candida albicans NCTC3179: >2000 µM
Trichophyton rubrum
  MIC: >2 µM

## RRVVRR [NP305, RRVVRR]
C. albicans
  MIC, Candida albicans NCTC3179: >2000 µM
Trichophyton rubrum
  MIC: >2 µM

## RRWRR [NP322, RRWRR]
C. albicans
  MIC, Candida albicans NCTC3179: >2000 µM

## RRWRRWRR [NP328]
C. albicans
  MIC, Candida albicans ATCC24433: 1024 µM
  MIC, Candida albicans ATCC90028: 1024 µM
  MIC, Candida albicans NCTC3179: 1024 µM
C. krusei
  MIC: 128 µM
  MIC, Candida krusei NCPF3953: 128 µM

## RRWRRWRR-OH [NP311]
C. albicans
  MIC, Candida albicans NCTC3179: >2000 µM

## RRWRWR [NP323, RRWRWR]
C. albicans
  MIC, Candida albicans ATCC24433: 1024 µM
  MIC, Candida albicans ATCC90028: 2000 µM
  MIC, Candida albicans NCTC3179: 1024 µM
C. krusei
  MIC: 256 µM
  MIC, Candida krusei NCPF3953: 256 µM

## RRWRWRR [NP326, RRWRWRR]
C. albicans
  MIC: 1024 µM
  MIC, Candida albicans ATCC24433: 1024 µM
  MIC, Candida albicans ATCC90028: 1024 µM
  MIC, Candida albicans NCTC3179: 2000 µM
C. krusei
  MIC: 128 µM
  MIC, Candida krusei NCPF3953: 128 µM

## RRWWR [NP321, RRWWR]
C. albicans
  MIC, Candida albicans NCTC3179: >2000 µM

## RRWWRR [NP324, RRWWRR]
C. albicans
  MIC: 1024 µM
  MIC, Candida albicans ATCC24433: 1024 µM
  MIC, Candida albicans ATCC90028: 1024 µM
  MIC, Candida albicans NCTC3179: 1024 µM
C. krusei
  MIC: 256 µM
  MIC, Candida krusei NCPF3953: 256 µM

## RVRVR [NP301, RVRVR]
C. albicans
  MIC, Candida albicans NCTC3179: >2000 µM
Trichophyton rubrum
  MIC: >2 µM

## RWRWR [NP320, RWRWR]
C. albicans
  MIC, Candida albicans NCTC3179: >2000 µM
